Measured values as given in paper PMC10808720 (Frontiers in Pharmacology, 2024).

What was measured:
p53/MDM2 complex = type: cell-based, Human; settings: HAdV5-infected A549 cells; 10-fold IC50; 24 h
Method: A549 cells were seeded at a density of 1.5 × 10^5 cells per well in a 24-well plate at a high density and 3.75 × 10^4 cells per well at a low density. […] The culture medium was then aspirated and washed with 1X with cold PBS. Later, 200 μL RIPA Lysis Buffer (1% v/v NP-40, 20 mM Tris-HCL pH 7.4, 5 mM Sodium Pyrophosphate, 5 mM EDTA) with freshly added proteinase inhibitor cocktail (Thermo Fisher Scientific) was added to each well and swirled to distribute it evenly. Cells were then scraped and collected to incubate them for 30 min on ice and finally centrifuged at 13,000 × g for 5 min at 4°C. […] This assay was performed in triplicate.

wild-type HAdV5 [1] = assay: Nuclear-associated HAdV genomes (qPCR after nuclear isolation); type: cell-based, human adenovirus (HAdV5); settings: 10-fold IC50; 45 min after synchronized infection; A549
Method: Nuclear delivery of HAdV genomes was assessed using qPCR following nuclear isolation from infected cells. Briefly, 1 × 10^6 A549 cells in 6-well plates were infected either with wild-type HAdV5 at an MOI of 2,000 vp/cell in the presence of a 10-fold IC50 concentration of the compounds obtained in the plaque assay or the same volume of DMSO as the positive control. Forty-five minutes after infection, the A549 cells were trypsinized, collected, and washed twice with PBS. The cell pellet was resuspended in 500 μL of 1×hypotonic buffer (20 mM Tris-HCl pH 7.4, 10 mM NaCl, 3 mM MgCl2) and incubated for 15 min at 4°C. Then, 25 μL of NP-40 was added and the samples were vortexed. The homogenates were centrifuged for 10 min at 835 g at 4°C. Following the removal of the cytoplasmic fraction (supernatant), HAdV DNA was isolated from the nuclear (pellet) and cytoplasmic fractions using the E.Z.N.A.® Tissue DNA Kit (Omega Bio-tek, Norcross, GA).

HCMV = assay: Impact on HCMV replication (qPCR of HCMV DNA in HFF); type: cell-based, human cytomegalovirus; settings: 2-fold IC50 (HAdV plaque assay), 72 h
Method: To test the anti-HCMV activity of these rotenolone-related compounds, human foreskin fibroblasts (HFF; ATCC, Manassas, VA) were seeded in a 24-well plate (8.3 × 10^4 cells/well), infected with HCMV (MOI 0.05 vp/cell), and incubated in complete DMEM in the presence of either 2-fold IC50 concentration of each compound obtained in the plaque assay against HAdV or the same volume of DMSO (positive control) in duplicate. The cells were incubated for 72 h at 37°C and 5% CO2 and HCMV DNA was purified from the cell lysate using E.Z.N.A Tissue DNA Kit (Omega Biotek, Norcross, GA, USA) following the manufacturer’s instructions. The qPCR primers, conditions, and protocols were the same as previously reported ([Mazzotta et al., 2020b]).

HAdV5-GFP [2] = assay: microbe, parasite or virus in culture; type: cell-based, human adenovirus (HAdV5); settings: HAdV5-GFP; 293β5 cells; MOI 0.06 vp/cell; 7 days; read-out: IC50 plaque assay
Method: Compounds were tested using low MOI infections (0.06 vp/cell), initially at concentrations of 10 μM and subsequently in a dose-response assay ranging from 10 μM to 2.44 nM in a plaque assay. Briefly, 293β5 cells were seeded in 6-well plates at a density of 1 × 10^6 cells per well in duplicate for each condition. When the cells reached 80%–90% confluency, they were infected with HAdV5-GFP and rocked for 2 h at 37°C. After the incubation, the inoculum was removed and the cells were washed once with PBS. Cells were then carefully overlaid with equal parts of 4 mL/well 1.6% ([…]) Difco Agar Noble (Becton, Dickinson & Co., Sparks, MD, USA) and 2× Eagle’s Minimum Essential Medium (EMEM; BioWhittaker) supplemented with 2×penicillin/streptomycin, 2× L-glutamine, and 10% FBS. The mixture also contained the compounds in the concentration ranges described above. Following incubation for 7 days at 37°C, plates were scanned with a Typhoon FLA 9000 imager (GE Healthcare Life Sciences) and the formed plaques were quantified with ImageJ ([Schneider et al., 2012]). Plaque counting was performed to calculate the 50% inhibitory concentration (IC50) of each compound using the statistical software GraphPad Prism 6.

A549 cells = assay: Cytotoxicity assay (AlamarBlue); type: cell-based, Human; settings: 48 h
Method: The cytotoxicity of the molecules was analyzed using the commercial kit AlamarBlue® (Invitrogen, Ref. DAL1025) according to the manufacturer’s instructions. Briefly, A549 cells were seeded at a density of 5 × 10^3 cells per well in 96-well plates, and decreasing serial dilutions of each molecule were diluted in 100 μL of DMEM starting at 200 μM. The cells were then incubated at 37°C for 48 h following the manufacturer’s protocol. The cytotoxic concentration 50% (CC50) value was obtained using the statistical software GraphPad Prism 6. The assay was performed in duplicate.

wild-type HAdV5 [3] = assay: HAdV yield reduction (burst) assay, TCID50 end-point dilution; type: cell-based, human adenovirus (HAdV5); settings: 10-fold IC50 concentration; TCID50/ml compound vs. DMSO; A549 cells; 48 h; MOI 100 vp/cell
Method: A549 cells (1.5 × 10^5 cells/well in a 24-well plate) were incubated 24 h in 500 μL of complete DMEM and they were infected with wild-type HAdV5 (MOI 100 vp/cell) when more than 90% of confluency was observed. Infected cells were incubated for 48 h at 37°C in 500 μL of either complete DMEM containing 10-fold IC50 concentration of compounds obtained in the plaque assay or the same volume of DMSO (positive control). After 48 h, the cells were harvested and subjected to three rounds of freeze/thaw. Serial dilutions of the clarified lysates were titrated against A549 cells (3 × 10^4 cells/well in a 96-well plate) and TCID50 values were calculated using an end-point dilution method ([Reed and Muench, 1938]).

HAdV5 = assay: HAdV-mediated endosome disruption (α-sarcin co-delivery, HPG incorporation); type: cell-based, human adenovirus (HAdV5)
Method: A549 cells (2 × 10^4 cells/well) were incubated in DMEM without cysteine or methionine supplemented with 10% dialyzed FBS [DMEM(−)] in black 96-well plates for 1 h prior to infection. Three-fold serial dilutions (0.45 ng–1,000 ng) of HAdV5, or AdV2ts1 were preincubated with cells in the presence of 10-fold IC50 concentration of the compounds obtained in the plaque assay or the same volume of DMSO for positive control for 1 h. The medium was then removed and replaced with 50 μL DMEM(−) containing 0.1 mg/ml α-sarcin (Santa Cruz Biotechnology, Dallas, Texas, USA) and drug mixtures. After 1 h at 37°C, the Click-iT L-homopropargylglycine (HPG) Alexa Fluor 488 Protein Synthesis Assay Kits (Invitrogen) was used to analyse protein synthesis according to the manufacturer’s instructions. The incorporation of the amino acid analogue of methionine HPG containing Alexa Fluor 488 azide was measured using a Typhoon 9410 imager (GE Healthcare Life Sciences) and calculated by subtracting the background level of the control well containing HPG and α-sarcin but not the virus (100% incorporation).

HAdV5-GFP [4] = assay: Initial rapid screening, HAdV5-mediated GFP expression in A549 cells; type: cell-based, human adenovirus (HAdV5); settings: 50 µM, 2,000 vp/cell, 48 h
Method: An initial rapid screening was performed using human A549 cells (3 × 10^5 cells/well) infected with HAdV5-GFP with a multiplicity of infection (MOI) of 2,000 vp/cell in the presence of 50 μM of the candidate antiviral compounds. Briefly, a standard infection curve was generated in parallel by infecting cells in the absence of compounds using serial two-fold dilutions of virus. Cells, virus and compounds were incubated for 48 h at 37°C and 5% CO2. Infection, as measured by HAdV5-mediated GFP expression, was analyzed using a Typhoon 9410 imager (GE Healthcare Life Sciences), and quantified with ImageQuantTL (GE Healthcare Life Sciences). All reactions were done in triplicate.

Chain of p53/MDM2 complex (P04637 whole entry): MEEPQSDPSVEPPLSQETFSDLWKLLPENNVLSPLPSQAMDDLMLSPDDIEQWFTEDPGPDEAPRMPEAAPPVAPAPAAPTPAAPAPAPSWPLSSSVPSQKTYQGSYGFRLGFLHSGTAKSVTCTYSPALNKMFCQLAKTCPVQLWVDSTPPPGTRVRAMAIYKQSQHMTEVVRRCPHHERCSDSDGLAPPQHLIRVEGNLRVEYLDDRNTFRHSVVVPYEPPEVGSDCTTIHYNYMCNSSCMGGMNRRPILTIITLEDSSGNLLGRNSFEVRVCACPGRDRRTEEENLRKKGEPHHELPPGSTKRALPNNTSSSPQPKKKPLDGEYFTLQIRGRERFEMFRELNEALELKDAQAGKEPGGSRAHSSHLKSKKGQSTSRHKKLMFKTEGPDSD
Chain of p53/MDM2 complex (Q00987 whole entry, further chain): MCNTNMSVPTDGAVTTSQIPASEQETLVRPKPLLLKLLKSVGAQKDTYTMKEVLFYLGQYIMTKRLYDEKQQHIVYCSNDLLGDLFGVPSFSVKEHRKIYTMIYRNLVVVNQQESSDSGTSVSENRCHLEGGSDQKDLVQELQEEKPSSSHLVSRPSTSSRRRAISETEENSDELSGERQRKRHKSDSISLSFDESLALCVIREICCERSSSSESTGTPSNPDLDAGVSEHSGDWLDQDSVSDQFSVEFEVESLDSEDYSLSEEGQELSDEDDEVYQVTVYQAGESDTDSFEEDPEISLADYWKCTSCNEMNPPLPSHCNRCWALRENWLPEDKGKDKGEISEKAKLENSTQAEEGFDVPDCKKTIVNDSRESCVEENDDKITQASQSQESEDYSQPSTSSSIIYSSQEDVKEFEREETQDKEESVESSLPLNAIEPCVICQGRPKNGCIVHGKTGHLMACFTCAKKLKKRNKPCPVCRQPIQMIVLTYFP

(2R,6S,6aR,12aS)-8,9-dimethoxy-2-(prop-1-en-2-yl)-1,2,6,6a,12,12a-hexahydrochromeno[3,4-b]furo[2,3-h]chromen-6-ol [Rotenolone]
concentration of p53/MDM2 complexes, high vs low cell density (p53/MDM2 complex): significant difference | accessibility of HAdV genomes to the nucleus (wild-type HAdV5 [1]): did not block | inhibition of HCMV replication (HCMV): 85.2% | IC50 (HAdV5-GFP [2]): 0.03 µM | CC50 (A549 cells): 17.1 ± 0.4 µM | Virus Yield Fold-reduction (wild-type HAdV5 [3]): 1.3E+04 ± 4582.5 fold | HPG incorporation (HAdV5; compared with a control without α-sarcin, 10-fold IC50, independent of virus concentration): approximately 30% | attenuation of HAdV-mediated endosomolysis (HAdV5; α-sarcin assay): did not attenuate | inhibition of HAdV5-GFP transgene expression (HAdV5-GFP [4]): 100%
